Experimental data: ChEMBL document CHEMBL1275374, “Ligand-based virtual screening and ADME-tox guided approach to identify triazolo-quinoxalines as folate cycle inhibitors” (Bioorg Med Chem, 2010)
Active and inactive are the calls of the source. The calls are words filed in the database; no cut-off is given here.

Key:
Thymidylate synthase [1] = biological target: T1, Thymidylate synthase (Homo sapiens, UniProt P04818); assay: Inhibition of human thymidylate synthase expressed in Escherichia coli BL21 at 50 uM
Target sequence in this assay (P04818 2-313 limits assumed): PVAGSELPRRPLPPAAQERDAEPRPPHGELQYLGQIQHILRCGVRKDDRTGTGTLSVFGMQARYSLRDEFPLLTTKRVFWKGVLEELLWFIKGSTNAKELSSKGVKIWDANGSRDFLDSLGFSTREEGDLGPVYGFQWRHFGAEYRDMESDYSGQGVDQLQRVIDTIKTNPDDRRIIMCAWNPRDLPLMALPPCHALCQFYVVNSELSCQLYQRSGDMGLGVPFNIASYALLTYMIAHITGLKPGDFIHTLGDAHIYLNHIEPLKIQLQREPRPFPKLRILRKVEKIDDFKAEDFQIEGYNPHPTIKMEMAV

[2] = Solubility of the compound in dimethyl sulfoxide; assay type: physicochemical
Thymidylate synthase [3] = biological target: T1, Thymidylate synthase; assay: Inhibition of thymidylate synthase catalytic activity in human cDDP-sensitive 2008 cells after 72 hrs by Western blotting (reference value: 38.8 +/- 3.9%); assay type: cell-based; conditions: concentration not given here
Target sequence in this assay (P04818 2-313 limits assumed): as above

2008 [4] = assay: Inhibition of DHFR protein expression in human cDDP-sensitive 2008 cells after 72 hrs by Western blotting; assay type: functional, cell-based
Thymidylate synthase [5] = biological target: T1, Thymidylate synthase; assay: Inhibition of thymidylate synthase catalytic activity in human cDDP-resistant C13 cells after 72 hrs by Western blotting (reference value: 12.9 +/- 0.6%); assay type: cell-based; conditions: concentration not given here
Target sequence in this assay (P04818 2-313 limits assumed): as above

A2780 [6] = assay: Cytotoxicity against human cDDP-sensitive A2780 cells after 72 hrs using crystal violet staining by spectrophotometric analysis; assay type: cell-based; conditions: A2780, 72 h
A2780 [7] = assay: Cytotoxicity against human cDDP-resistant A2780 cells after 72 hrs using crystal violet staining by spectrophotometric analysis; assay type: cell-based; conditions: A2780, 72 h
[8] = Cytotoxicity against human cDDP-resistant C13 cells after 72 hrs using crystal violet staining by spectrophotometric analysis; assay type: cell-based; conditions: C13, 72 h
C13 = assay: Inhibition of DHFR protein expression in human cDDP-resistant C13 cells after 72 hrs by Western blotting; assay type: functional, cell-based
2008 [9] = assay: Induction of ROS accumulation in human cDDP-sensitive 2008 cells at IC50 concentration after 72 hrs […]; assay type: cell-based; conditions: human, 2008, 72 h
[10] = Induction of ROS accumulation in human cDDP-resistant C13 cells at IC50 concentration after 72 hrs […]; assay type: cell-based; conditions: c13, 72 h
2008 [11] = assay: Cytotoxicity against human cDDP-sensitive 2008 cells after 72 hrs using crystal violet staining by spectrophotometric analysis; assay type: cell-based; conditions: Homo sapiens, 2008, 72 h
2008 [12] = assay: Inhibition of thymidylate synthase protein expression in human cDDP-sensitive 2008 cells after 72 hrs by Western blotting; assay type: functional, cell-based
Vero = assay: Cytotoxicity against african green monkey Vero cells after 72 hrs using crystal violet staining by spectrophotometric analysis; assay type: cell-based; conditions: Chlorocebus sabaeus
[13] = Inhibition of thymidylate synthase protein expression in human cDDP-resistant C13 cells after 72 hrs by Western blotting; assay type: functional, cell-based
[14] = Cytotoxicity against human Fibroblast at up to 100 uM after 72 hrs using crystal violet staining by spectrophotometric analysis; assay type: cell-based
Thymidylate synthase [15] = biological target: T1, Thymidylate synthase; assay: Inhibition of human thymidylate synthase expressed in Escherichia coli BL21
Target sequence in this assay (P04818 whole entry): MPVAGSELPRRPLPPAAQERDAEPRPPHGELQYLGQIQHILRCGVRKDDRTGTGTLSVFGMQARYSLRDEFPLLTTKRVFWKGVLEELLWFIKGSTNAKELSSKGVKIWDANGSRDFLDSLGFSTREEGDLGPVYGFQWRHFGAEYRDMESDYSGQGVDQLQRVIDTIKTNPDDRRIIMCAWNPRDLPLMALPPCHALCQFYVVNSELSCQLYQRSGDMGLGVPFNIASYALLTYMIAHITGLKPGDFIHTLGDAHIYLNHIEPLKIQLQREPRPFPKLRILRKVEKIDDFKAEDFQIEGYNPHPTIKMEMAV

[16] = biological target: T2, Dihydrofolate reductase (Homo sapiens) (UniProt P00374); assay: Inhibition of human DHFR expressed in Escherichia coli BL21 at 100 uM
T2 sequence (whole entry): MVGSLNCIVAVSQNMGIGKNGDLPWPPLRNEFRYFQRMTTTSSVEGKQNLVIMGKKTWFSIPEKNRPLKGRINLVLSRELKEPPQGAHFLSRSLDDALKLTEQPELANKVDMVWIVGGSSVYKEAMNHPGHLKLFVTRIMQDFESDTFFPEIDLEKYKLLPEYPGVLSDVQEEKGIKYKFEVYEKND

Thymidylate synthase [17] = biological target: T1, Thymidylate synthase; assay: Inhibition of human thymidylate synthase expressed in Escherichia coli BL21 at 100 uM
Target sequence in this assay (P04818 2-313 limits assumed): as the sequence (P04818 2-313 limits assumed) above

Thymidylate synthase [18] = biological target: T1, Thymidylate synthase; assay: Inhibition of human thymidylate synthase expressed in Escherichia coli BL21 at 25 uM
Target sequence in this assay (P04818 2-313 limits assumed): as above

inhibition (Thymidylate synthase [1]) | Compound | IC50 (A2780 [6]) | IC50 (A2780 [7]) | IC50 [8] | IC50 2008 [11] | IC50 (Vero) | also measured
< 5% | C=CCn1cnc2c(c1=O)c1nc3ccccc3nc1n2CCCC | – | – | – | – | – | solubility [2]: Insoluble
– | FC(F)(F)c1nc2ccccc2n2c(-c3c(Cl)cccc3Cl)nnc12 | 27.5 µM | 25 µM | 28 µM | 37 µM | 10 µM | inhibition (Thymidylate synthase [3]): 58.9%; inhibition 2008 [4]: inactive; inhibition (Thymidylate synthase [5]): 32.3%; inhibition (C13): inactive; Activity 2008 [9]: Non-toxic; Activity [10]: Non-toxic; inhibition 2008 [12]: inactive; inhibition [13]: inactive
< 5% | O=C(CSc1nc2ccccc2nc1-c1ccccc1)N1CCCCCC1 | – | – | – | – | – | –
28% | Clc1nc2ccccc2n2c(-c3ccccc3)nnc12 | 2.5 µM | 6 µM | 13 µM | 12.5 µM | 18.2 µM | Activity [14]: Non-toxic; Ki (Thymidylate synthase [15]): 10 µM
< 5% | Cc1cc(Nc2nc3ccccc3n3cnnc23)ccc1Br | – | – | 19 µM | 17 µM | 20 µM | –
< 5% | N#Cc1c(N)n(CCc2ccccc2F)c2nc3ccccc3nc12 | – | – | 22 µM | 18 µM | 9.1 µM | –
– | FC(F)(F)c1ccc(-c2nnc3c(C(F)(F)F)nc4ccccc4n23)cc1 | – | – | – | – | – | inhibition [16]: 10%; inhibition (Thymidylate synthase [17]): 22%
– | Clc1ccc(Oc2nc3ccccc3n3c(-c4ccc(Cl)cc4)nnc23)cc1 | – | – | – | – | – | inhibition [16]: inactive; inhibition (Thymidylate synthase [18]): 53%
70% | Cc1ccc(S(=O)(=O)N(C)c2nc3ccccc3n3c(-c4ccccc4)nnc23)cc1 | – | – | – | – | – | inhibition [16]: inactive
< 5% | O=C(Nc1cc(C(F)(F)F)ccc1Cl)c1ccc2nccnc2c1 | – | – | 50 µM | 50 µM | – | –
– | Cc1ccc(-c2nnc3c(C(F)(F)F)nc4ccccc4n23)cc1 | 33 µM | 35.7 µM | 26.7 µM | 42.5 µM | > 50 µM | inhibition (Thymidylate synthase [3]): 38.8%; inhibition 2008 [4]: inactive; inhibition (Thymidylate synthase [5]): 12.9%; inhibition (C13): inactive; Activity 2008 [9]: Non-toxic; Activity [10]: Non-toxic; inhibition 2008 [12]: inactive; inhibition [13]: inactive
– | CN1CCN(c2nc3ccccc3n3c(-c4ccccc4)nnc23)CC1 | 18 µM | 38 µM | > 50 µM | 48 µM | 22 µM | inhibition [16]: 40%; inhibition (Thymidylate synthase [17]): < 10%
< 5% | O=C(Nc1cccc(Br)c1)c1ccc2nccnc2c1 | – | – | 50 µM | 50 µM | – | –
< 5% | Cc1cccc(-c2c3c(=O)n(C)c(=O)n(C)c3c3c(C(F)(F)F)nc4ccccc4n23)c1 | – | – | 55 µM | 49 µM | 100 µM | –
< 5% | O=C(c1ccco1)N1N=C(c2ccc3nccnc3c2)CC1c1ccccc1 (configuration not stated) | – | – | – | – | – | inhibition (Thymidylate synthase [17]): inactive
< 5% | Cc1ccc(-c2nc3ccccc3n3cc4c(=O)n(C)c(=O)n(C)c4c23)cc1 | – | – | 56 µM | 53 µM | 100 µM | solubility [2]: Insoluble
< 5% | COc1ccc(-c2nc3ccccc3n3cc4c(=O)n(C)c(=O)n(C)c4c23)cc1 | – | – | – | – | – | solubility [2]: Insoluble
– | Fc1ccccc1-c1nnc2c(C(F)(F)F)nc3ccccc3n12 | 9 µM | 11 µM | 27 µM | 17.5 µM | 14 µM | inhibition [16]: 10%; inhibition (Thymidylate synthase [17]): 17%
– | COc1ccc(C(=O)c2nc3ccccc3nc2N2CCN(C)CC2)cc1 | 17.4 µM | 27.4 µM | 8.3 µM | 18.8 µM | 42.4 µM | –
< 5% | Cc1ccc(S(=O)(=O)N2CN(c3ccccc3)c3nc4ccccc4nc32)cc1 | – | – | 50 µM | 50 µM | – | –
– | COc1cc(Nc2nc3cc(C(F)(F)F)ccc3nc2C)cc(OC)c1OC | 27.5 µM | 35.3 µM | 14.2 µM | 28.8 µM | 40.2 µM | –
< 5% | COCCn1c(C)nc2c(c1=O)c1nc3ccccc3nc1n2-c1cc(C)cc(C)c1 | – | – | – | – | – | solubility [2]: Insoluble
< 5% | FC(F)(F)c1nc2ccccc2n2c(-c3ccc(Cl)cc3)nnc12 | 2.3 µM | 4.7 µM | 3.4 µM | 2.5 µM | 1.2 µM | –
– | Cc1ccc(-c2nnc3c(N(C)C)nc4ccccc4n23)cc1 | – | – | – | – | – | inhibition [16]: inactive; inhibition (Thymidylate synthase [17]): 41%
< 5% | COCCn1cnc2c(c1=O)c1nc3ccccc3nc1n2-c1ccc(Cl)c(Cl)c1 | – | – | 36 µM | 31 µM | 52 µM | solubility [2]: Insoluble
